These results are taken from ChEMBL document CHEMBL1140833, “Potent heteroarylpiperidine and carboxyphenylpiperidine 1-alkyl-cyclopentane carboxamide CCR2 antagonists” (Bioorg Med Chem Lett, 2008).

pIC50: −log10 of the molar value.

Data set [1] concerns the target C-C chemokine receptor type 2 (Homo sapiens, UniProt P41597). Kind of data set: Displacement of [125I]MCP1 from CCR2 receptor in human monocytes. The format is cell-based. (In general: In a radioligand displacement assay an active substance lowers the binding of a labelled ligand.)
Data set [2] addresses Voltage-gated inwardly rectifying potassium channel KCNH2 (Homo sapiens, UniProt Q12809). The experiment in a line: Displacement of [[…]]MK499 from human ERG expressed in HEK cells. It counts as cell-based, HEK293.
Data set [3] in a line: Selectivity for human CCR2 over IKr.
For data set [4], the target named is C-C chemokine receptor type 5 (Homo sapiens) (UniProt P51681). The experiment in a line: Inhibition of CCR5 at 1 uM. More on the design: scale not given: the % may be the effect or the level left.
Sequence of C-C chemokine receptor type 5 (Homo sapiens) (P51681 whole entry, looked up): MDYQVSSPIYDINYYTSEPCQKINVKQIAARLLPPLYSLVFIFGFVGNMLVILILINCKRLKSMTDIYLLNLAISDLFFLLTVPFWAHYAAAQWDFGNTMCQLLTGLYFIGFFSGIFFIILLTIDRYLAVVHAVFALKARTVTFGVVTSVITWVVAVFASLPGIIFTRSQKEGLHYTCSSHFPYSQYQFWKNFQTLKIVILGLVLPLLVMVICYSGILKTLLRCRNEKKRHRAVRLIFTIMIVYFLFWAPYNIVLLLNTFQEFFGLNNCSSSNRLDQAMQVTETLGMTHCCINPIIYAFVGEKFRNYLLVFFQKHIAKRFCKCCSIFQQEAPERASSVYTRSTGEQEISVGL
Data set [5] in a line: Oral bioavailability in rat at 3 mg/kg. It counts as ADME, organism-based. The following applies: in vivo.
Data set [6] is described as follows: Half life in rat at 3 mg/kg, po. It counts as ADME, organism-based. More on the design: dose 3 mg/kg, route oral. The following applies: in vivo.
Data set [7] is described as follows: Clearance in rat at 3 mg/kg, po. It counts as ADME, organism-based. On the set-up: dose 3 mg/kg, route oral. The note with it: in vivo.

Sequence of Voltage-gated inwardly rectifying potassium channel KCNH2 (Q12809 whole entry): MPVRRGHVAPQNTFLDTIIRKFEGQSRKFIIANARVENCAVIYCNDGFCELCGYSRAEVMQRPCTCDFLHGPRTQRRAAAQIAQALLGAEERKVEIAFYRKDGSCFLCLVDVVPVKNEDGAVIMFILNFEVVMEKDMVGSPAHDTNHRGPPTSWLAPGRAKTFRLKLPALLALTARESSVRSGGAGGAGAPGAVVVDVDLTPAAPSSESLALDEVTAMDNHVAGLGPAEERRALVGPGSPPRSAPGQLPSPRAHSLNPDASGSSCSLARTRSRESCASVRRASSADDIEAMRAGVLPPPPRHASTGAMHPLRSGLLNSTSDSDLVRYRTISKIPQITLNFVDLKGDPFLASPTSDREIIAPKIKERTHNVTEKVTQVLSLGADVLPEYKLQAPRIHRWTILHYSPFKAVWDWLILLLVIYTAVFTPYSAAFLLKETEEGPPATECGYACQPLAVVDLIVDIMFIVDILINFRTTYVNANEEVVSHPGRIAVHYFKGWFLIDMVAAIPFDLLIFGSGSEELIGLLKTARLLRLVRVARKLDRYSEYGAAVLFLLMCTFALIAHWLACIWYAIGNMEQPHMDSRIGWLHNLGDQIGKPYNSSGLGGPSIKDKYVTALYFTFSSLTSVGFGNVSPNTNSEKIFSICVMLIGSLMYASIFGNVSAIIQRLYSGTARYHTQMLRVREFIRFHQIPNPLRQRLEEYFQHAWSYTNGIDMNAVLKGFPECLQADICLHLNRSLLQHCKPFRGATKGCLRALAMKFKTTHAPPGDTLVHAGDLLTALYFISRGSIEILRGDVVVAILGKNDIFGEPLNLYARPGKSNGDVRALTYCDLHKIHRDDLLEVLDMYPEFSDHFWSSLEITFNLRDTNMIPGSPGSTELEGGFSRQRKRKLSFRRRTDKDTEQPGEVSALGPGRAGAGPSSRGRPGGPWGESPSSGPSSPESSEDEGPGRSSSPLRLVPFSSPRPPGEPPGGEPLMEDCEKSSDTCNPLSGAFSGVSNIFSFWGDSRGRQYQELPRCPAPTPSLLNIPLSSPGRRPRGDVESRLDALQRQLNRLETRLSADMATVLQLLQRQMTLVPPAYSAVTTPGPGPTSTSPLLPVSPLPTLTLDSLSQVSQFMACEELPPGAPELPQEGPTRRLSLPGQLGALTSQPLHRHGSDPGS
Sequence of C-C chemokine receptor type 2 (P41597 whole entry): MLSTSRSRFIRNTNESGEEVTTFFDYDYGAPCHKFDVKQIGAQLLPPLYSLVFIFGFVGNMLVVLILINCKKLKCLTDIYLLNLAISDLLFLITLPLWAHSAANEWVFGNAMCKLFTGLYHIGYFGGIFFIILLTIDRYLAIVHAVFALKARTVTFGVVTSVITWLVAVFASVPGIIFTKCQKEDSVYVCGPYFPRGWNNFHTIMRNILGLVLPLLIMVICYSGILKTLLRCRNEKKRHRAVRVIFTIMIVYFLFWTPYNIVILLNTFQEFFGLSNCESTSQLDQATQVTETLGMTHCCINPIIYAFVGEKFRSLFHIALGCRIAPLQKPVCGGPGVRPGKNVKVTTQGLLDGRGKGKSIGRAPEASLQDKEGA

A word on the pIC50: it is the negative decadic logarithm of the IC50, by convention in mol/L. For the compound `CC(C)[C@]1(C(=O)NCc2cc(C(F)(F)F)cc(C(F)(F)F)c2)CC[C@@H](N2CCC(c3ccc(Cl)nn3)CC2)C1` (single isomer, unassigned), the pIC50 in data set [1] is 6.78.
Consider `COc1cccc(C2CCN([C@@H]3CC[C@@](C(=O)NCc4cc(C(F)(F)F)cc(C(F)(F)F)c4)(C(C)C)C3)CC2)c1` (single isomer, unassigned), for which the pIC50 in data set [2] was 6.66; in data set [1] it was 8.22. Besides, the IKr IC50/CCR2 IC50 ratio in data set [3] was 36.
Take `CC(C)[C@]1(C(=O)NCc2cc(C(F)(F)F)cc(C(F)(F)F)c2)CC[C@@H](N2CCC(c3ccc(F)cc3)CC2)C1`: the pIC50 in data set [2] is 7.80; in data set [1] it was 8.52. Also, the Activity in data set [4] was 69%. For the same compound, the IKr IC50/CCR2 IC50 ratio in data set [3] is 5.
On to `CC(C)[C@]1(C(=O)NCc2cc(C(F)(F)F)cc(C(F)(F)F)c2)CC[C@@H](N2CCC(c3ccncn3)CC2)C1` (single isomer, unassigned), for which the pIC50 in data set [2] was 6.89; in data set [1], 7.36. For the same compound, the IKr IC50/CCR2 IC50 ratio in data set [3] amounted to 3.
In the case of `CC(C)[C@]1(C(=O)NCc2cc(C(F)(F)F)cc(C(F)(F)F)c2)CC[C@@H](N2CCC(c3ccnnc3)CC2)C1` (single isomer, unassigned), the pIC50 in data set [1] was 7.19.
What is called bioavailability is dose-corrected exposure relative to a reference, in per cent. What is called half-life is how long it takes for the measured level to halve. As a reminder, the CL/F is the apparent clearance, not corrected for the fraction that reaches the circulation. `CC(C)[C@]1(C(=O)NCc2cc(C(F)(F)F)cc(C(F)(F)F)c2)CC[C@@H](N2CCC(c3cncnc3)CC2)C1` (relative stereo) yielded a bioavailability in data set [5] of 33%. In data set [6], this compound gave a half-life of 3.8 h. The negative logarithm of the IC50 (pIC50) in data set [1] is 7.92. The same compound had an apparent clearance CL/F in data set [7] of 7 mL/min/kg.
Compound `CC(C)[C@]1(C(=O)NCc2cc(C(F)(F)F)cc(C(F)(F)F)c2)CC[C@@H](N2CCC(c3cncnc3)CC2)C1` [listing 1 of 2 here] gave a pIC50 in data set [1] of 8.30.
Consider `CC(C)[C@]1(C(=O)NCc2cc(C(F)(F)F)cc(C(F)(F)F)c2)CC[C@@H](N2CCC(c3cccc(C(=O)O)c3)CC2)C1` (single isomer, unassigned), for which the pIC50 in data set [2] was 6.22; in data set [1], 7.39. In addition, the IKr IC50/CCR2 IC50 ratio in data set [3] is 15.
On to `CC(C)[C@]1(C(=O)NCc2cc(C(F)(F)F)cc(C(F)(F)F)c2)CC[C@@H](N2CCC(c3cccc(O)c3)CC2)C1` (single isomer, unassigned), for which the values for the pIC50 in data set [2] and in data set [1] were 7.17 and 8.22, respectively. The IKr IC50/CCR2 IC50 ratio in data set [3] was 11.
Compound `CC(C)[C@]1(C(=O)NCc2cc(C(F)(F)F)cc(C(F)(F)F)c2)CC[C@@H](N2CCC(c3cccnn3)CC2)C1` (single isomer, unassigned) had a pIC50 in data set [1] of 7.30.
In data set [1], `CC(C)[C@]1(C(=O)NCc2cc(C(F)(F)F)cc(C(F)(F)F)c2)CC[C@@H](N2CCC(c3cccc(F)c3)CC2)C1` (single isomer, unassigned) had a pIC50 of 8.40.
On to `CC(C)(O)[C@]1(C(=O)NCc2cc(C(F)(F)F)cc(C(F)(F)F)c2)CC[C@@H](N2CCC(c3ccc(F)cc3)CC2)C1`, for which the pIC50 was 7.27 in data set [2] and 8.89 in data set [1]. Besides, the Activity in data set [4] stood at 69%. In data set [3], the IKr IC50/CCR2 IC50 ratio was determined as 42.
In data set [4], `CC(C)(O)[C@]1(C(=O)NCc2cc(C(F)(F)F)cc(C(F)(F)F)c2)CC[C@@H](N2CCC(c3cncnc3)CC2)C1` gave an Activity of 3%. Besides, in data set [1], the pIC50 was 8.22.
The compound `CC(C)[C@]1(C(=O)NCc2cc(C(F)(F)F)cc(C(F)(F)F)c2)CC[C@@H](N2CCC(c3cncnc3)CC2)C1` [listing 2 of 2 here] displayed an Activity in data set [4] of 3%.
Turning to `CC(C)[C@]1(C(=O)NCc2cc(C(F)(F)F)cc(C(F)(F)F)c2)CC[C@@H](N2CCC(c3ncccn3)CC2)C1` (single isomer, unassigned), the negative-log IC50 (pIC50) in data set [1] was 6.84.
Take `CC(C)[C@]1(C(=O)NCc2cc(C(F)(F)F)cc(C(F)(F)F)c2)CC[C@@H](N2CCC(c3cccnc3)CC2)C1` (relative stereo): the pIC50 in data set [1] is 8.22.
As to `CC(C)[C@]1(C(=O)NCc2cc(C(F)(F)F)cc(C(F)(F)F)c2)CC[C@@H](N2CCC(c3cccc(C(=O)O)c3)CC2)C1`, the pIC50 in data set [2] is 5.56; in data set [1], 7.21. Further, the IKr IC50/CCR2 IC50 ratio in data set [3] came to 45.
